Laboratory results as given in patent US7081448B2, “Benzyllactobionamides as inhibitors of smooth muscle cell proliferation” (Wyeth, priority 1998, dated 2006).

System: Porcine Smooth Muscle Cell
Assay: Effects of compounds on cell proliferation using 3H thymidine incorporation
Format: cell-based
Settings: porcine smooth muscle cells, serum/growth factor stimulated; for IC50: 24–36 h, read-out: Porcine Smooth Muscle Cell Antiproliferation IC50; for Porcine Smooth Muscle Cell Antiproliferation, percent inhibition: @ 500 μM
Experimental: The compounds of this invention are useful as antiproliferative agents. The following procedures show the evaluation of representative compounds of this invention in standard pharmacological test procedure which measured ability of the evaluated compound to inhibit smooth muscle cell proliferation
Effects of Compounds on Cell Proliferation Using ^3H Thymidine Incorporation
Human and porcine smooth muscle cells were tested in early passage (generally passage 3–7) at sub-confluent conditions. Cultures were grown in 16 mm (24 well) multi-well culture dishes in medium 199 supplemented with 10% fetal bovine serum and 2% antibiotic/antimycotic. At sub-confluence, the cells were placed in a defined serum free medium (AIM-V; Gibco) for 24–48 h prior to initiating the experimental protocol. […] Compounds were added to each well at 50 fold dilution (20 μL/well) and the plates were incubated for 24–36 h at 37° C. in 5% CO2. Compounds were initially dissolved in 50% ethanol and serially diluted into media. Compounds were routinely evaluated at concentrations from 1 to 100 μM. As a control, grade II porcine intestinal mucosal heparin (sodium salt) was routinely evaluated in all cell preparations at concentrations from 0.1 to 100 μg/mL. At the completion of the test procedure, plates were placed on ice, washed three times with ice cold phosphate buffered saline (PBS) and incubated in ice cold 10% trichloroacetic acid (TCA) got 30 min to remove acid soluble proteins. Solution was transferred to scintillation vials containing 0.4 N HCl (500 μL/vial to neutralize NaOH) and each well was rinsed two times with water (500 μL) for a total volume of 2 mL/vial. Data was obtained, in triplicate, for both control and experimental samples. Control (100%) data was obtained from maximally stimulated cells, as the result of growth factor or serum stimulation. Experimental data was obtained from cells maximally stimulated with growth factor or serum and treated with compound. Data are expressed as an IC50 or percent inhibition in Table I below.

Row | Compound | IC50 | Porcine Smooth Muscle Cell Antiproliferation, percent inhibition
1 | CC(=O)OC[C@H]1O[C@@H](O[C@@H]([C@H](OC(C)=O)[C@@H](OC(C)=O)C(=O)NCc2ccccc2)[C@@H](COC(C)=O)OC(C)=O)[C@H](OC(C)=O)[C@@H](OC(C)=O)[C@H]1OC(C)=O [Example 1, N-Benzyl-octa-O-acetyl-lactobionamide] | 118 µM | 
2 | CC(=O)OC[C@H]1O[C@@H](O[C@@H]([C@H](OC(C)=O)[C@@H](OC(C)=O)C(=O)NCc2ccc(N)cc2)[C@@H](COC(C)=O)OC(C)=O)[C@H](OC(C)=O)[C@@H](OC(C)=O)[C@H]1OC(C)=O [Example 4, N-(4-Amino-benzyl)-octa-O-acetyl-lactobionamide] |  | 30% @ 500
3 | CC(=O)OC[C@H]1O[C@@H](O[C@@H]([C@H](OC(C)=O)[C@@H](OC(C)=O)C(=O)NCc2cccc(N)c2)[C@@H](COC(C)=O)OC(C)=O)[C@H](OC(C)=O)[C@@H](OC(C)=O)[C@H]1OC(C)=O [Example 5, N-(3-Amino-benzyl)-octa-O-acetyl-lactobionamide] |  | 12% @ 500
4 | N-Benzyl-octa-O-sulfo-lactobionamide Octasodium Salt [Example 2] |  | 45% @ 500
5 | N-[3-(Acetylamino)-benzyl]-octa-O-sulfo-lactobionamide Octasodium Salt [Example 7] | 122 µM | 
